From US11466326B2, “Methods and kit for diagnosing and treating colorectal cancer based on AvrA and Wnt1” (The Board of Trustees of the University of Illinois, priority 2018, dated 2022)
Peptide text beside a SMILES is read from it. * marks the point of attachment. Cbz = O=C(OCc1ccccc1)*

What was measured:
Wnt1 protein [1] = assay: Wnt1 protein level after Salmonella infection in the presence of a proteasome inhibitor; assay type: cell-based, human; conditions: in the presence of MG132; compared with control cells without treatment
Description: (§1) Western Blot Analysis of Cell Line Proteins. Infected or control cells were rinsed twice in ice-cold HESS and lysed in protein loading buffer (50 mM Tris, pH 6.8, 100 mM dithiothreitol, 2% SDS, 0.1% bromophenol blue, and 10% glycerol). Equal amounts of protein were separated by SDS-polyacrylamide gel electrophoresis, transferred to nitrocellulose membranes, and analyzed by immunoblotting with anti-Wnt1 and anti-β-actin antibodies (Bioworld). The signals were visualized and quantitated using LI-COR Odyssey v3.0 software after probing the membranes with an infrared-conjugated secondary antibody.

Wnt1 protein [2] = assay: Wnt1 protein level by immunoblot after LPS treatment of human epithelial cells; assay type: cell-based; conditions: cells treated with LPS, total cell lysates
Description: as §1

Row | Molecule | Wnt1 protein levels after Salmonella infection (Wnt1 protein [1]) | change in Wnt1 expression (decrease as seen with Salmonella) (Wnt1 protein [2])
1 | CC(C)C[C@@H](C=O)NC(=O)[C@H](CC(C)C)NC(=O)[C@H](CC(C)C)NC(=O)OCc1ccccc1 [MG132] (Cbz-Leu-Leu-Leu-aldehyde) | stabilized | 
2 | lipopolysaccharide [LPS] |  | not observed
